This is an account of results in US8232298B2, “Inhibitors of the interaction between MDM2 and P53” (Janssen Pharmaceutica N.V., priority 2006, dated 2012).

In one data set the test system is U87MG cells. Put plainly: Proliferation assay (MTT) on U87MG tumour cells. The format is cell-based. Conditions: Homo sapiens, U-87 MG. The procedure:
Cellular activity of the compounds of formula (I) was determined on U87MG tumour cells using a colorimetric assay for cell toxicity or survival (see example C.2).
U87MG cells are human glioblastoma cells with wild type p53. In this cell line MDM2 tightly controls p53 expression.
All compounds tested were dissolved in DMSO and further dilutions were made in culture medium. Final DMSO concentrations never exceeded 0.1% (v/v) in cell proliferation assays. Controls contained U87MG cells and DMSO without compound and blanks contained DMSO but no cells.
U87MG cells were seeded in 96-well cell culture plates at 3000 cells/well/100 μl. 24 hours later, medium was changed and compound and/or solvent were added to a final volume of 200 μl. Following 4 days of incubation, medium was replaced by 200 μl fresh medium and cell growth was assessed using a MTT-based assay. Therefore, 25 μl of the MTT solution (0.5% MTT research grade from Serva in phosphate-buffered saline ) was added to each well and the cells were further incubated for 2 hours at 37° C. The medium was then carefully aspirated and the blue MTT-formazan product was dissolved by adding to each well 25 μl 0.1M glycin and 100 μl DMSO. The plates were shaken for another 10 min on a micro plate shaker before reading absorbance at 540 nm by a Biorad micro plate reader.
Within an experiment, the results for each experimental condition are the mean of 3 replicate wells. For initial screening purposes, compounds were tested at a single fixed concentration of 10^−5 M. For active compounds, the experiments were repeated to establish full concentration-response curves. For each experiment, controls (containing no drug) and a blank incubation (containing no cells or drugs) were run in parallel. The blank value was subtracted from all control and sample values. For each sample, the mean value for cell growth (in absorbance units) was expressed as a percentage of the mean value for cell growth of the control. When appropriate, IC50-values (concentration of the drug, needed to reduce cell growth to 50% of the control) were computed using probit analysis for graded data (Finney, D. J., Probit Analyses, 2nd Ed. Chapter 10, Graded Responses, Cambridge University Press, Cambridge 1962). Herein the effects of test compounds are expressed as pIC50 (the negative log value of the IC50-value) (see table F-2).
In some of the experiments the proliferation assay was adapted for and used in 384-well culture plates (see table F-2).

The test system of another data set is p53 in A2780 cells. Put plainly: p53 ELISA: capacity to preserve p53 in A2780 cells. Conditions: treated with compound for 16 hours, in M. Type of data set: cell-based. The procedure: The capacity of the compounds to preserve p53 in A2780 cells was measured with the p53 enzyme linked immunosorbent assay. The p53 assay is a “sandwich” enzyme immunoassay employing two polyclonal antibodies. A polyclonal antibody, specific for the p53 protein, has been immobilized onto the surface of the plastic wells. Any p53 present in the sample to be assayed will bind to the capture antibody. The biotinylated detector polyclonal antibody also recognizes p53 protein, and will bind to any p53, which has been retained by the capture antibody. The detector antibody, in turn, is bond by horseradish peroxidase-conjugated streptavidin. The horseradish peroxidase catalyses the conversion of the chromogenic substrate o-phenylene diamine, the intensity of which is proportional to the amount of p53 protein bond to the plate. The colored reaction product is quantified using a spectrophotometer. Quantitation is achieved by the construction of a standard curve using known concentrations of purified recombinant HIS tagged p53 protein (see example C.1.).
A2780 cells (ATCC) were cultivated in RPMI 1640 supplemented with 10% fetal calf serum (FCS), 2 mM L-glutamine and gentamycin at 37° C. in a humidified incubator with 5% CO2.
A2780 cells were seeded at 20.000 cells per well in a 96 well plate, cultured for 24 hours and treated with compound for 16 hours at 37° C. in a humidified incubator. After incubation, the cells were washed once with phosphate-buffered saline and 30 μl, per well, low salt RIPA buffer (20 mM tris, pH7.0, 0.5 mM EDTA, 1% Nonidet P40, 0.5% DOC, 0.05% SDS, 1 mM PMSF, 1 μg/ml aprotinin and 0.5 μ/ml leupeptin) was added. Plates were placed on ice for 30 minutes to complete the lysis. p53 protein was detected in de lysates by using the sandwich ELISA, described below.
High binding polystyrene EIA/RIA 96 well plates (Costar 9018) were coated with the capture antibody pAb1801 (Abeam ab28-100) at a concentration of 1 μg/ml in coating buffer (0.1 M NaHCO3 pH8.2), 50 μl per well. The antibody was allowed to adhere overnight at 4° C. Coated plates were washed once with phosphate-buffered saline (PBS)/0.05% Tween 20 and 300 μl of blocking buffer (PBS, 1% bovine serum albumins (BSA)) was added, for an incubation period of 2 hours at room temperature. Dilutions of purified recombinant HIS tagged p53 protein, ranging from 3-200 ng/ml, were made in blocking buffer and used as standards.
Plates were washed twice with PBS/0.05% Tween 20 and blocking buffer or standards were added at 80 μl/well. To the standards, 20 μl of lysis buffer was added. The samples were added to the other wells at 20 μl lysate/well. After an overnight incubation at 4° C., plates were washed twice with PBS/0.05% Tween 20. Aliquots of 100 μl secondary polyclonal antibody p53(FL-393) (Tebubio, sc-6243) at a concentration of 1 μg/ml in blocking buffer were added to each well and allowed to adhere for 2 hours at room temperature. Plates were washed three times with PBS /0.05% Tween 20. Detection antibody anti-rabbit HRP (sc-2004, Tebubio) at 0.04 μg/ml in PBS/1% BSA was added and incubated for 1 hour at room temperature. Plates were washed three times with PBS/0.05% Tween 20 and 100 μl of substrate buffer was added (substrate buffer was prepared shortly before use by adding 1 tablet of 10 mg o-phenylene diamine (OPD) from Sigma and 125 μl 3% H2O2 to 25 ml OPD buffer: 35 mM citric acid, 66 mM Na2HPO4, pH5.6). After 5 to 10 minutes, colour reaction was stopped by adding 50 μl stop buffer (1 M H2SO4) per well. The absorbance at dual wavelengths of 490/655 nm was measured using a Biorad micro plate reader and the results were then analyzed.
For each experiment, controls (containing no drug) and a blank incubation (containing no cells or drugs) were run in parallel. The blank value was subtracted from all control and sample values. For each sample, the value of p53 (in absorbance units) was expressed as the percentage of the value for p53 present in the control. […]

Where [1] appears, read: 96 h, 96-well plates, 4 days of incubation, read-out: cell proliferation pIC50 96 well (converted).
The mark [2] stands for this setting: 384-well culture plates, read-out: cell proliferation pIC50 384 well (converted).

Broadly, the melting point is the temperature of the solid-liquid transition.

Each structure is given as a SMILES string. Read-outs that look alike come from different tables or passages of the source.

The molecule `c1ccc2c(CCNc3ccc(Nc4ccncc4)cc3)coc2c1` [Compound 1] yielded a melting point of 152 to 154 °C. For the same molecule, in the data set on U87MG cells (setting [1]), the IC50 is 3.24 µM. For the same molecule, the “A2780 p53-elisa LAD (lowest dose giving at least 140% of the value for p53 present in the control)” value with p53 in A2780 cells is listed as 1.0E−05.
On the same counts, the results for `c1cnc2[nH]cc(CCNc3ccc(Nc4ccncc4)cc3)c2c1` [Compound 2] are 182 °C, 4.37 µM and 3.0E−06.
The molecule `c1cc(Nc2ccc(NCCc3cnc4n3CCCC4)cc2)ccn1` [Compound 3] registered a melting point of 256 °C. In addition, the IC50 with U87MG cells (setting [1]) was 7.08 µM. Also, the “A2780 p53-elisa LAD (lowest dose giving at least 140% of the value for p53 present in the control)” value in the data set with p53 in A2780 cells was 3.0E−06.
Take `c1cc(Nc2ccc(Nc3ccc4[nH]ccc4c3)cc2)ccn1` [Compound 4]: in the data set with U87MG cells (setting [2]), the IC50 was 1.41 µM. Further, the “A2780 p53-elisa LAD (lowest dose giving at least 140% of the value for p53 present in the control)” value in the data set with p53 in A2780 cells amounted to 1.0E−06.
Molecule `COc1ccc2c(CCNc3ccc(Nc4ccncc4)cc3)coc2c1` [Compound 5] showed a melting point of 184 to 186 °C. Further, the IC50 in the data set with U87MG cells (setting [1]) is 4.47 µM. In addition, the “A2780 p53-elisa LAD (lowest dose giving at least 140% of the value for p53 present in the control)” value in the data set with p53 in A2780 cells is on record as 1.0E−05.
For `c1cc(Nc2ccc(NCCc3c[nH]c4sccc34)cc2)ccn1` [Compound 6], in the data set on U87MG cells (setting [2]), the IC50 was > 10 µM. Besides, the “A2780 p53-elisa LAD (lowest dose giving at least 140% of the value for p53 present in the control)” value in the data set on p53 in A2780 cells was found to be 1.0E−05.
